Experimental data published in patent US20250376522A1, “Targeting Cells with a Combination of CXCR2 Inhibition and CD47 Blockade” (The Board of Trustees of the Leland Stanford Junior …, priority 2022, published 2025).

What was measured:
[1] = target: T1, CXCR1 (Homo sapiens, UniProt P25024); settings: read-out: Kd of IL-8 binding to CXCR1; cited from earlier work
T1 sequence (P25024 1-350): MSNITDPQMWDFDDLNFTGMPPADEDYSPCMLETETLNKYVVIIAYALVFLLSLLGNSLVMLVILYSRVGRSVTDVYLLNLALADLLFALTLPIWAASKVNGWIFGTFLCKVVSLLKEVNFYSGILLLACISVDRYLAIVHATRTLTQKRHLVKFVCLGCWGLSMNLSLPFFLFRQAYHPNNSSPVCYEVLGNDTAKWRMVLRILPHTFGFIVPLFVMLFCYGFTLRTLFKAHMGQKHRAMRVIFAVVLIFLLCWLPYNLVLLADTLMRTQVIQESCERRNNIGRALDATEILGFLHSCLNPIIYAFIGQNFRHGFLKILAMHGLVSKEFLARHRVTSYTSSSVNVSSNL

[2] = target: T2, CXCR2 (Homo sapiens, UniProt P25025); settings: read-out: Kd of IL-8 binding to CXCR2; cited from earlier work
T2 sequence (P25025 1-360): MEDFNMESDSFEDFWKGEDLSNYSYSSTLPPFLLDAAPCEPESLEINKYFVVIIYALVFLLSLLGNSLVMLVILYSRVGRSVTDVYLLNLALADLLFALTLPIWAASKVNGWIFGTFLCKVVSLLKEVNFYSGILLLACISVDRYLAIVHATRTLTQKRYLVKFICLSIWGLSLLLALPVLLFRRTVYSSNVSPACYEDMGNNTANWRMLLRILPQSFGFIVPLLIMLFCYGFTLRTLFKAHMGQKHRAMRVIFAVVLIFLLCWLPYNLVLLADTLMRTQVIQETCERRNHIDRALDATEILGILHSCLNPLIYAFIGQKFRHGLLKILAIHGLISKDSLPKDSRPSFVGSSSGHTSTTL

[3] = target: T2, CXCR2; settings: cited from earlier work
[4] = test system: CXCR2+ G-MDSCs; test: Thioglycolate-induced peritonitis, G-MDSC recruitment to peritoneum (flow cytometry); type: in vivo, mouse; settings: 2 mg/kg IP at thioglycolate infusion and 12 hr later; peritoneal cells harvested at 24 h; control and Poly I:C-treated mice
Method: FIGS. 3A-3B. A) Representative flow cytometry plots of CXCR2 expression on peritoneal M-MDSCs and G-MDSCs of control and Poly I:C-treated CSF1R^FIFI-Mx1-Cre mice (n=5 mice). Peritoneal cells were harvested […] after thioglycolate infusion (n=5 mice). B) Representative flow cytometry plots of peritoneal M-MDSCs and G-MDSCs harvested 24 hrs after thioglycolate infusion of control and Poly I:C-treated CSF1R^FI/FI-Mx1-Cre mice (n=5 mice). Mice were either untreated or treated with 2 mg/kg SB225002 (CXCR2 inhibitor) at time of thioglycolate infusion and 12 hrs before harvesting (n=5 mice).
Blocking G-MDSC recruitment in thioglycolate-induced peritonitis with a CXCR2 inhibitor. The C-X-C chemokine receptor 2 (CXCR2) signaling axis plays a key role in the migration of immunosuppressive MDSCs. To identify whether these subsets of MDSCs in the peritoneal cavity elicited through thioglycolate-induced peritonitis express CXCR2, peritoneal cells were harvested 24 hours after intraperitoneal injection of thioglycolate and were analyzed by flow cytometry (FIG. 3A). […] At the 24 h time point, peritoneal cells were harvested and analyzed by flow cytometry (FIG. 3B).
Flow cytometry. […] Fluorescence compensations were performed using single-stained UltraComp eBeads (Affymetrix). […] Data was acquired using a FACSAria II cell sorter (BD Biosciences) and analyzed using FlowJo software. […]

[5] = test system: B16-F10 melanoma; test: B16-F10 melanoma in control and Poly I:C-treated CSF1R Fl/Fl-Mx1-Cre mice treated with CXCR2 inhibitor; type: in vivo, mouse
Method: FIGS. 5A-5D. A) CSF1R^FI/FI-Mx1-Cre mice received three intraperitoneal injections of Poly I:C (100 ug) and were rested for one week. 5×10^5 B16-F10 mouse melanoma cells were then subcutaneously engrafted into flanks of control and Poly I:C-treated CSF1R^FIFI-Mx1-Cre mice. Following the day of engraftment, mice were either untreated or treated daily with 2 mg/kg SB225002 (CXCR2 inhibitor). Burden of B16-F10 melanoma tumors in control and Poly I:C-treated CSF1R^FIFI-Mx1-Cre mice treated with or without SB225002. Data are mean±s.e.m. (n=5 mice per group). B) Flow cytometry analysis of M-MDSCs and G-MDSCs in tumors of mice. MDSCs are gated on CD11b+ cells. Data are mean±s.e.m. (n=5 mice per group). C) Flow cytometry analysis of M-MDSCs and G-MDSCs in bone marrow of tumor-bearing mice. MDSCs are gated on CD11b+ cells. Data are mean±s.e.m. (n=5 mice per group). D) Flow cytometry analysis of M-MDSCs and G-MDSCs in the peripheral blood of tumor-bearing mice. MDSCs are gated on CD11b+ cells. Data are mean±s.e.m. (n=5 mice per group).
Targeting G-MDSCs in B16-F10 melanoma with a CXCR2 inhibitor. To determine whether targeting CXCR2+ G-MDSCs could lead to an anti-tumor response, poly I:C and PBS mice were subcutaneously engrafted with B16-F10 melanoma. The day after engraftment, mice were treated intraperitoneally with PBS or SB225002 six days per week. […] Tumors were harvested and subjected to flow cytometry for immunophenotyping.
Flow cytometry. Samples were blocked with monoclonal antibody to CD16/32 (TruStain fcX, BioLegend) before staining with antibody panels. Samples were stained for 30 min on ice, and subsequently washed with FACS buffer (PBS with 1% FBS buffer). Fluorescence compensations were performed using single-stained UltraComp eBeads (Affymetrix). The following antibodies were used for FACS analysis: Anti-CD11b (M1/70 BD Biosciences); Anti-F4/80 (BM8 BioLegend); Anti-Ly6G (1A8 BioLegend), Anti-Ly6C (HK1.4 BioLegend); Anti-CXCR2 (SA044G4 BioLegend). SYTOX blue dead cell stain (Invitrogen) was used for dead cell exclusion. Data was acquired using a FACSAria II cell sorter (BD Biosciences) and analyzed using FlowJo software.
In vivo tumor experiments and treatments. Mice 6-8 weeks of age were given subcutaneous injection of B16-F10 melanoma cells in PBS into the right flank. Tumor growth was measured by using calipers and volumes were calculated by using the formula: volume= 4/3π×(x/2)2×(y/2), where x is the largest measurable dimension of the tumor and y is the dimension immediately perpendicular to x. Tumor volumes were evaluated using two-way ANOVA in GraphPad Prism. For tumor treatments, mice were given mouse IgG1 isotype control clone MOPC21 (BioXCell), anti-CD47 mAb clone MIAP410 (BioXCell), or SB225002 (ToCris) by intraperitoneal injection.

In the case of “IL-8: chemokine ligand of CXCR1 and CXCR2”, the Kd [1] is listed as about 4 nM and the Kd [2] is listed as about 4 nM.
In the case of `CC[C@@H](Nc1c(Nc2cccc(C(=O)N(C)C)c2O)c(=O)c1=O)c1ccc(C)o1` [Navaraxin, Navarixin], the Selective/Pan [3] is listed as “Selective”.
For `O=C(Nc1ccc(F)cc1)c1cnc(SCc2cc(OC(F)(F)F)ccc2B(O)O)nc1` [SX-682], the Selective/Pan [3] is given as “Pan”.
For `O=C(Nc1ccc([N+](=O)[O-])cc1O)Nc1ccccc1Br` [SB225002], the “Percentage of G-MDSCs in the peritoneal cavity” value [4] was “significantly decreased percentage of G-MDSCs”, the “Tumor progression (burden of B16-F10 melanoma tumors)” value ([5]; 2 mg/kg intraperitoneally from the day after engraftment, especially in mice expressing CSF1R) was “significantly decreased tumor progression” and the “G-MDSCs in bone marrow of tumor-bearing mice” value ([5]; bone marrow, flow cytometry) was “significant decrease of G-MDSCs”. For the same compound, the “G-MDSCs in peripheral blood of tumor-bearing mice” value ([5]; peripheral blood, flow cytometry) was “significant decrease of G-MDSCs”, the “Tumor-infiltrating G-MDSCs” value ([5]; tumors, flow cytometry, gated on CD11b+ cells) was “significant decrease in tumor-infiltrating G-MDSCs” and the Selective/Pan [3] was “Selective”.
